Biological target: HIS-TGFβR1 T204D (Homo sapiens (Human), UniProt P36897, T204D)
Experiment: HTRF probe-displacement assay, HIS-TGFβR1 T204D
Type: binding
Settings: 1 hour at room temperature

HIS-TGFβR1 T204D, sequence (P36897 34-503 T204D): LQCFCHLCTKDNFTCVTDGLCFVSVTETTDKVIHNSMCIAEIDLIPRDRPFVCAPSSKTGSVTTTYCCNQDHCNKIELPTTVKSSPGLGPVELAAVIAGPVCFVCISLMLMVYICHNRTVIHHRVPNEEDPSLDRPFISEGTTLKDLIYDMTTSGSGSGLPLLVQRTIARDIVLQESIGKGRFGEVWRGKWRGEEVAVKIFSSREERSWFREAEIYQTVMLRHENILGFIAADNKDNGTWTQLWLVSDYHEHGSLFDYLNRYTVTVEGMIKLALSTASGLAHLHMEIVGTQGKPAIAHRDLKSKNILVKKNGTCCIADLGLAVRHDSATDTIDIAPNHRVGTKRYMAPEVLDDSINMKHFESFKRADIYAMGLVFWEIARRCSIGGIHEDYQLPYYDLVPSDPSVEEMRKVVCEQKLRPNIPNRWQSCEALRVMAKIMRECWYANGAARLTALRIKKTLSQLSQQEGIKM

SMILES	IC50
Fc1cnccc1Nc1nc(-c2ccccn2)nn2ccc(CNCCCn3ccnc3)c12 [Example 281, 3-fluoro-N-[5-({[3-(1H-imidazol-1-yl)propyl]amino}methyl)-2-(pyridin-2-yl)pyrrolo[2,1-f][1,2,4]triazin-4-yl]pyridin-4-amine]	1.6 nM
C=Cc1cc2c(Nc3ccncc3F)nc(-c3cccc(OC)n3)nn2c1 [Example 210, N-[6-ethenyl-2-(6-methoxypyridin-2-yl)pyrrolo[2,1-f][1,2,4]triazin-4-yl]-3-fluoropyridin-4-amine]	30 nM
O=C(CCN1CCC(O)CC1)Nc1cc(Nc2nc(-c3cccc(C(F)(F)F)n3)nn3cccc23)ccn1 [Example 340, 3-(4-hydroxypiperidin-1-yl)-N-[4-({2-[6-(trifluoromethyl)pyridin-2-yl]pyrrolo[2,1-f][1,2,4]triazin-4-yl}amino)pyridin-2-yl]propanamide]	1.2 nM
O=C(c1cnccc1Nc1nc(-c2cccc(C(F)F)n2)nn2cccc12)N1CCCC1 [Example 186, N-{2-[6-(difluoromethyl)pyridin-2-yl]pyrrolo[2,1-f][1,2,4]triazin-4-yl}-3-(pyrrolidine-1-carbonyl)pyridin-4-amine]	32 nM
O=C(NCCCN1CCCC1)c1cnccc1Nc1nc(-c2ccccn2)nn2cccc12 [Example 150]	16 nM
COc1cccc(-c2nc(Nc3ccncc3F)c3cc(NC(=O)N4CCOCC4)cn3n2)n1 [Example 105, N-{4-[(3-fluoropyridin-4-yl)amino]-2-(6-methoxypyridin-2-yl)pyrrolo[2,1-f][1,2,4]triazin-6-yl}morpholine-4-carboxamide]	690 nM
O=C(NCCN1CCNCC1)c1cnccc1Nc1nc(-c2ccccn2)nn2cccc12 [Example 151, N-[2-(piperazin-1-yl)ethyl]-4-{[2-(pyridin-2-yl)pyrrolo[2,1-f][1,2,4]triazin-4-yl]amino}pyridine-3-carboxamide]	49 nM
OC1(CCNCc2ccn3nc(-c4ccccn4)nc(Nc4ccncc4F)c23)CCCC1 [Example 240, 1-{2-[({4-[(3-fluoropyridin-4-yl)amino]-2-(pyridin-2-yl)pyrrolo[2,1-f][1,2,4]triazin-5-yl}methyl)amino]ethyl}cyclopentan-1-ol]	0.7 nM
O=C(CN1CCNCC1)Nc1cc(Nc2nc(-c3cccc(C(F)(F)F)n3)nn3cccc23)ccn1 [Example 322, 2-(piperazin-1-yl)-N-[4-({2-[6-(trifluoromethyl)pyridin-2-yl]pyrrolo[2,1-f][1,2,4]triazin-4-yl}amino)pyridin-2-yl]acetamide]	1.3 nM
N#Cc1cc(Nc2nc(-c3cccc(C(F)(F)F)n3)nn3cccc23)ccn1 [Example 292, 4-({2-[6-(trifluoromethyl)pyridin-2-yl]pyrrolo[2,1-f][1,2,4]triazin-4-yl}amino)pyridine-2-carbonitrile]	360 nM
COc1cccc(-c2nc(Nc3ccncc3F)c3cc(CNC[C@@H](F)C(C)(C)O)cn3n2)n1 [Example 208, (3R)-3-fluoro-4-[({4-[(3-fluoropyridin-4-yl)amino]-2-(6-methoxypyridin-2-yl)pyrrolo[2,1-f][1,2,4]triazin-6-yl}methyl)amino]-2-methylbutan-2-ol]	880 nM
CC(C)(O)CNCc1ccn2nc(-c3ccccn3)nc(Nc3ccncc3F)c12 [Example 125, 1-[({4-[(3-fluoropyridin-4-yl)amino]-2-(pyridin-2-yl)pyrrolo[2,1-f][1,2,4]triazin-5-yl}methyl)amino]-2-methylpropan-2-ol]	1.6 nM
Fc1cnccc1Nc1nc(-c2ccccn2)nn2ccc(CNCCCN3CCOCC3)c12 [Example 246, 3-fluoro-N-[5-({[3-(morpholin-4-yl)propyl]amino}methyl)-2-(pyridin-2-yl)pyrrolo[2,1-f][1,2,4]triazin-4-yl]pyridin-4-amine]	3.9 nM
COc1cccc(-c2nc(Nc3ccncc3C(N)=O)c3cccn3n2)n1 [Example 98, 4-{[2-(6-methoxypyridin-2-yl)pyrrolo[2,1-f][1,2,4]triazin-4-yl]amino}pyridine-3-carboxamide]	9.1 nM
CC(=O)Nc1cc(Nc2nc(-c3ccc(F)cn3)nn3cccc23)c(F)cn1 [Example 323, N-(5-fluoro-4-{[2-(5-fluoropyridin-2-yl)pyrrolo[2,1-f][1,2,4]triazin-4-yl]amino}pyridin-2-yl)acetamide]	16 nM
NCCCNCc1ccn2nc(-c3ccccn3)nc(Nc3ccncc3F)c12 [Example 286, N-(5-{[(3-aminopropyl)amino]methyl}-2-(pyridin-2-yl)pyrrolo[2,1-f][1,2,4]triazin-4-yl)-3-fluoropyridin-4-amine]	2.9 nM
Cc1cccc(-c2nc(Nc3ccncc3C(=O)NCCCN3CCN(C)CC3)c3cccn3n2)n1 [Example 160, N-[3-(4-methylpiperazin-1-yl)propyl]-4-{[2-(6-methylpyridin-2-yl)pyrrolo[2,1-f][1,2,4]triazin-4-yl]amino}pyridine-3-carboxamide]	3.5 nM
Fc1cnccc1Nc1nc(-c2ccccn2)nn2ccc(CN3CCN(c4ncccn4)CC3)c12 [Example 276, 3-fluoro-N-[2-(pyridin-2-yl)-5-{[4-(pyrimidin-2-yl)piperazin-1-yl]methyl}pyrrolo[2,1-f][1,2,4]triazin-4-yl]pyridin-4-amine]	1.6 nM

SMILES	IC50
Cc1cccc(-c2nc(Nc3ccncc3)c3cc(C(=O)NCCCN4CCCC4)cn3n2)n1 [Example 50, 2-(6-methylpyridin-2-yl)-4-[(pyridin-4-yl)amino]-N-[3-(pyrrolidin-1-yl)propyl]pyrrolo[2,1-f][1,2,4]triazine-6-carboxamide]	76 nM
COc1cccc(-c2nc(Nc3ccncc3F)c3cc(NC(=O)CN4CCOCC4)cn3n2)n1 [Example 106, N-{4-[(3-fluoropyridin-4-yl)amino]-2-(6-methoxypyridin-2-yl)pyrrolo[2,1-f][1,2,4]triazin-6-yl}-2-(morpholin-4-yl)acetamide]	1400 nM
CC(=O)N1CCN(CC(=O)Nc2cc(Nc3nc(-c4cccc(C(F)(F)F)n4)nn4cccc34)ccn2)CC1 [Example 320, 2-(4-acetylpiperazin-1-yl)-N-[4-({2-[6-(trifluoromethyl)pyridin-2-yl]pyrrolo[2,1-f][1,2,4]triazin-4-yl}amino)pyridin-2-yl]acetamide]	0.85 nM
COc1cccc(-c2nc(Nc3ccncc3F)c3cc(NS(C)(=O)=O)cn3n2)n1 [Example 22, N-{4-[(3-fluoropyridin-4-yl)amino]-2-(6-methoxypyridin-2-yl)pyrrolo[2,1-f][1,2,4]triazin-6-yl}methanesulfonamide]	56 nM
COc1cccc(-c2nc(Nc3ccncc3F)c3c(C(O)CN4CCC(F)(F)CC4)ccn3n2)n1 (centres unmarked) [Example 129, 2-(4,4-difluoropiperidin-1-yl)-1-{4-[(3-fluoropyridin-4-yl)amino]-2-(6-methoxypyridin-2-yl)pyrrolo[2,1-f][1,2,4]triazin-5-yl}ethan-1-ol]	38 nM
FC(F)(F)c1cccc(-c2nc(Nc3ccncc3OCCCN3CCOCC3)c3cccn3n2)n1 [Example 75]	210 nM
Cc1cccc(-c2nc(Nc3ccncc3OCCCCN(C)C)c3cccn3n2)n1 [Example 51, 3-[4-(dimethylamino)butoxy]-N-[2-(6-methylpyridin-2-yl)pyrrolo[2,1-f][1,2,4]triazin-4-yl]pyridin-4-amine]	30 nM
Cc1ccc(F)c(-c2nc(Nc3ccncc3F)c3cccn3n2)n1 [Example 261, 3-fluoro-N-[2-(3-fluoro-6-methylpyridin-2-yl)pyrrolo[2,1-f][1,2,4]triazin-4-yl]pyridin-4-amine]	< 0.76 nM
CCN(CC)CCNC(=O)c1cnccc1Nc1nc(-c2ccccn2)nn2cccc12 [Example 143, N-[2-(diethylamino)ethyl]-4-{[2-(pyridin-2-yl)pyrrolo[2,1-f][1,2,4]triazin-4-yl]amino}pyridine-3-carboxamide]	19 nM
Cc1cccc(-c2nc(Nc3ccncc3C(=O)NC3CCOCC3)c3cccn3n2)n1 [Example 164, 4-{[2-(6-methylpyridin-2-yl)pyrrolo[2,1-f][1,2,4]triazin-4-yl]amino}-N-(oxan-4-yl)pyridine-3-carboxamide]	75 nM
Cc1cccc(-c2nc(Nc3ccncc3)c3cc(C(=O)N(C)C)cn3n2)n1 [Example 218, N,N-dimethyl-2-(6-methylpyridin-2-yl)-4-[(pyridin-4-yl)amino]pyrrolo[2,1-f][1,2,4]triazine-6-carboxamide]	130 nM
COc1cccc(-c2nc(Nc3ccnc(NCCN4CCC(O)CC4)c3)c3cccn3n2)n1 [Example 132, 1-{2-[(4-{[2-(6-methoxypyridin-2-yl)pyrrolo[2,1-f][1,2,4]triazin-4-yl]amino}pyridin-2-yl)amino]ethyl}piperidin-4-ol]	700 nM
COc1cccc(-c2nc(Nc3ccncc3F)c3cc(NC(=O)CN)cn3n2)n1 [Example 109, 2-amino-N-{4-[(3-fluoropyridin-4-yl)amino]-2-(6-methoxypyridin-2-yl)pyrrolo[2,1-f][1,2,4]triazin-6-yl}acetamide]	1600 nM
O=C(Nc1cc(Nc2nc(-c3cccc(C(F)(F)F)n3)nn3cccc23)ccn1)[C@@H]1CCCN1 [Example 326, (2S)—N-[4-({2-[6-(trifluoromethyl)pyridin-2-yl]pyrrolo[2,1-f][1,2,4]triazin-4-yl}amino)pyridin-2-yl]pyrrolidine-2-carboxamide]	88 nM
COc1cccc(-c2nc(Nc3ccnc(NCCN4CCC(O)CC4)c3)c3c(C)ccn3n2)n1 [Example 136, 1-{2-[(4-{[2-(6-methoxypyridin-2-yl)-5-methylpyrrolo[2,1-f][1,2,4]triazin-4-yl]amino}pyridin-2-yl)amino]ethyl}piperidin-4-ol]	720 nM
COc1cccc(-c2nc(Nc3ccncc3F)c3cc(C(C)(C)O)cn3n2)n1 [Example 39, 2-{4-[(3-fluoropyridin-4-yl)amino]-2-(6-methoxypyridin-2-yl)pyrrolo[2,1-f][1,2,4]triazin-6-yl}propan-2-ol]	1600 nM
Fc1cnccc1Nc1nc(-c2ccccn2)nn2ccc(CNCC3CCNCC3)c12 [Example 238, 3-fluoro-N-(5-{[(piperidin-4-ylmethyl)amino]methyl}-2-(pyridin-2-yl)pyrrolo[2,1-f][1,2,4]triazin-4-yl)pyridin-4-amine]	2.9 nM
